Source: US12410124B2 (priority 2019, dated 2025)
Read-outs that look alike come from different tables or passages of the source.

Assays:
midbrain TH = experiment: Midbrain TH expression in MPTP Parkinson's disease model mouse (western-blotting); format: in vivo; conditions: midbrain total protein, GAPDH internal reference, gavage 21 days after MPTP modeling
Method: (§1) Neurotoxins can be used to establish PD animal models. Currently, 1-methyl-4-phenyl-1,2,3,6-tetrahydropyridine (MPTP) is the sole synthetic toxin which is recognized to induce PD symptoms in human and non-human primates and in mice. Using MPTP subacute modeling method, C57BL/6J male mice were intraperitoneally injected with MPTP 30 mg/kg, once a day for 5 consecutive days. The experiment animals were divided into blank control group, MPTP model group, and compound treatment group. For the […] compound treatment group, the compound was administrated by gavage for 21 consecutive days after the completion of modeling; for the MPTP model group, the normal saline was administrated by gavage for 21 consecutive days after the completion of modeling; and for the blank control group, the normal saline was first intraperitoneally injected for 5 days, and then administrated by gavage for 21 days.
The main cause of PD lies in the pathological changes in the substantia nigra-striatum projection system of the brain and the progressive degeneration and loss of dopaminergic neurons. Tyrosine hydroxylase (TH) is the first enzyme in the biosynthesis of catecholamine neurotransmitters, as well as the first rate-limiting enzyme in the dopamine synthesis. It plays an important role in the synthesis and metabolism of the neurotransmitter DA. The TH in PD animal models and patients has a wide range of abnormal changes, from the gene expression to the enzyme protein content and enzyme activity. The detection of the TH expression in the midbrain and substantia nigra of PD model mice can be used to evaluate the neuroprotective activity of the compound.
(§2) Half of experiment mice in each group were taken to extract the total midbrain protein, and the change in the midbrain TH was determined by western-blotting using GAPDH as the internal reference. The experiment included blank control group, MPTP model group, positive control group (caffeic acid phenethyl ester, CAPE), prototype control group (styryl sulfone compounds 3B, 3C, 3D, and 3G, whose structures are shown as above), and target compound group.

substantia nigra CD11b = experiment: Number of substantia nigra microglial cells with CD11b positive expression in MPTP Parkinson's disease model mouse (immunohistochemistry); format: in vivo; conditions: for Positive cell number (microglial cells with CD11b positive expression): substantia nigra, MPTP Parkinson's disease model mouse, immunohistochemistry
Method: as §1
Neuron-glial cell network homeostasis disorder is an important factor for the selective and progressive death of substantia nigra dopaminergic neurons in PD. In the neurotoxic effect of MPTP, the excessive activations of microglial cells and astrocytes produce a variety of inflammatory cytokines and reactive oxygen species (ROS). These inflammatory factors and ROS amplify their respective toxicities and mediate malignant feedback loop, causing a cascade inflammation response and aggravating the pathological process of PD. CD11b and GFAP are the marker proteins for activations of microglial cells and astrocytes, respectively. Therefore, the effect of the target compounds on the activations of the microglial cells and astrocytes in the substantia nigra, hippocampus, and midbrain areas of MPTP-induced PD mice can be investigated, to explore the mechanism of the anti-PD effect of the target compounds by inhibiting the neuroinflammation.
(§3) Half of experiment mice in each group were taken to separate the midbrain after perfusion and fixation. The tissue was trimmed, and the substantia nigra area was taken to prepare paraffin sections. The CD11b immunohistochemical staining was performed for the statistics of the change in the number of microglial cells with CD11b positive expression. The experiment included blank control group, MPTP model group, positive control group (caffeic acid phenethyl ester, CAPE), prototype control group (styryl sulfone compounds 3B, 3C, 3D, and 3G, whose structures are shown as above), and target compound group.

substantia nigra p-α-s = experiment: Substantia nigra p-α-s protein expression in MPTP Parkinson's disease model mouse (immunofluorescence); format: in vivo; conditions: percentage of mean intensity of blank control group, gavage 21 days after MPTP modeling
Method: as §1
(§4) Alpha-synuclein is an “unfolded protein” in its natural state. It exists in a monomeric form, and participates in the physiological functions such as the release of neurotransmitters, the establishment of synaptic junctions, and the regulation of synaptic plasticity. Under pathological conditions, more than 90% of alpha-synuclein is phosphorylated at serine of position 129 and converted into phosphorylated alpha-synuclein (p-α-s), thereby forming Lewy bodies. The formation of Lewy bodies is one of the main pathological manifestations and pathological mechanisms for Parkinson's disease, and plays an important role in the formation and development of PD. The detection of the p-α-s expression in the midbrain and substantia nigra of PD model mice can evaluate the neuroprotective activity of the compound.
as §3, with “nigra-striatum” for “nigra”, “p-α-s immunofluorescence” for “CD11b immunohistochemical”, “performed” for “performed for the statistics of the change”, “brain sections” for “number”, “mice in each group. […]” for “microglial cells with CD11b positive expression.”

[1] = test system: fetal rat midbrain neurons; experiment: Survival rate of primary midbrain neurons induced by MPP+ (CCK-8); format: cell-based; conditions: for viability at 5 µM / viability at 10 µM / viability at 20 µM: Rattus norvegicus, Neuron, read-out: Survival rate (%)
From the text: The main pathological feature of Parkinson's disease (PD) lies in the degeneration and loss of dopaminergic neuron in the substantia nigra-striatum of the midbrain. 1-Methyl-4-phenylpyridinium (MPP+) has a high affinity to dopamine carriers and a selective toxicity on dopaminergic neurons. Thus, MPP+ is one of the most ideal classic neurotoxins for establishing PD cell models. The primary cell culture of fetal rat midbrain is often used to establish PD cell models in recent years. Although it is more cumbersome and has higher technical requirements than cell line culture, it is closer to the pathological characteristics of PD. Thus, a PD cell model is established using neurons from the primary cell culture of fetal rat midbrain under MPP+ induction, to evaluate the protective effect of target compounds on the model neurons.
The midbrain was separated from a fetal rat of a 15-day-pregnant SD rat and cut into pieces, then subjected to trypsin digestion, pipetting, screen filtration, and resuspension steps, and inoculated in a 24-well cell culture plate pre-coated with poly-D-lysine. 12 hours after culture, cytarabine was added to inhibit the growth of glial cells. On the 5th day of neuron growth, the toxin MPP+ can be added to make a PD cell model. When detecting the activity of a target compound, the target compound was pre-incubated with midbrain neurons for 3 h, then MPP+ was added, and after 48 h co-incubation the neuronal viability was detected by CCK-8 method and the neuronal survival rate was calculated to evaluate the inhibitory activity of the target compound on the midbrain neuronal PD damage. The experiment included blank control group, MPP+ model group, positive control group (caffeic acid phenethyl ester, CAPE), prototype control group (styryl sulfone compounds 3B, 3C, 3D, and 3G), and target compound group (prepared according to Examples 1-22 in the invention).

midbrain p-α-s = experiment: Midbrain p-α-s protein expression in MPTP Parkinson's disease model mouse (western-blotting); format: in vivo; conditions: midbrain total protein, GAPDH internal reference, gavage 21 consecutive days after MPTP modeling
Method: as §1, §4
as §2, with “P-α-s protein expression” for “TH”

[2] = 5 μM, 3 h pre-incubation, 48 h with MPP+
[3] = 10 μM, 3 h pre-incubation, 48 h with MPP+
[4] = 20 μM, 3 h pre-incubation, 48 h with MPP+

Compound: CCN(CC)C(=O)Oc1ccc(/C=C/S(=O)(=O)Cc2ccc(C(C)(C)C)cc2)cc1OC(=O)N(CC)CC [Compound G1-1, (E)-4-{2-[(4-t-butylphenyl)mesyl]ethenyl}-1,2-phenylenebis(diethylcarbamate)]
- Expression (TH/GAPDH) (midbrain TH): 0.70 ± 0.03
- number of substantia nigra microglial cells with CD11b positive expression compared with the styryl sulfone prototype compounds (substantia nigra CD11b): significantly lower
- Positive cell number (microglial cells with CD11b positive expression) (substantia nigra CD11b): 36 ± 3
- Expression (Immunofluorescence intensity %) (substantia nigra p-α-s): 77.36 ± 9.15%
- viability at 5 µM [1, 2]: 78.5 ± 3.59%
- viability at 10 µM [1, 3]: 85.9 ± 2.67%
- viability at 20 µM [1, 4]: 91.4 ± 1.59%
- survival rate compared with the styryl sulfone prototype compounds ([1]; no concentration stated): significantly increased
- Expression (p-α-s/GAPDH) (midbrain p-α-s): 0.34 ± 0.09

Compound: CC(Br)C(Br)COc1cc(/C=C/S(=O)(=O)CCc2ccc(OCC(F)(F)F)cc2)ccc1OC(=O)Nc1ccsc1 (centres unmarked) [Compound K1-3, (E)-2-(2,3-dibromobutoxy)-4-{2-[4-(2,2,2-trifluoroethoxy)phenylethylsulfonyl]ethenyl}phenyl-N-(thien-3-yl)carbamate]
- Expression (TH/GAPDH) (midbrain TH): 0.91 ± 0.04
- Positive cell number (microglial cells with CD11b positive expression) (substantia nigra CD11b): 32 ± 4
- Expression (Immunofluorescence intensity %) (substantia nigra p-α-s): 90.04 ± 7.43%
- viability at 5 µM [1, 2]: 65.4 ± 4.31%
- viability at 10 µM [1, 3]: 72.1 ± 2.77%
- viability at 20 µM [1, 4]: 83.2 ± 1.76%
- Expression (p-α-s/GAPDH) (midbrain p-α-s): 0.34 ± 0.10

Compound: CN(C)c1ccc(CC(=O)Oc2cc(/C=C/S(=O)(=O)C(Br)c3ccc(Cc4ccc(N(C)C)cc4)cc3)ccc2OC(=O)N2CCCC2C(F)(F)F)cc1 (centres unmarked) [Compound M1-5]
- Expression (TH/GAPDH) (midbrain TH): 0.83 ± 0.06
- Positive cell number (microglial cells with CD11b positive expression) (substantia nigra CD11b): 28 ± 3
- Expression (Immunofluorescence intensity %) (substantia nigra p-α-s): 67.90 ± 3.29%
- viability at 5 µM [1, 2]: 68.2 ± 4.31%
- viability at 10 µM [1, 3]: 78.2 ± 3.76%
- viability at 20 µM [1, 4]: 86.9 ± 3.08%
- Expression (p-α-s/GAPDH) (midbrain p-α-s): 0.24 ± 0.05

Compound: CC(C)(C)c1ccc(CS(=O)(=O)/C=C/c2ccc(O)c(O)c2)cc1 [Compound 3G, (E)-4-{2-[(4-t-butylphenyl)mesyl]ethenyl}benzene-1,2-diol, reference compound]
- Expression (TH/GAPDH) (midbrain TH): 0.45 ± 0.05
- Positive cell number (microglial cells with CD11b positive expression) (substantia nigra CD11b): 52 ± 5
- Expression (Immunofluorescence intensity %) (substantia nigra p-α-s): 203.66 ± 8.37%
- viability at 5 µM [1, 2]: 51.4 ± 3.54%
- viability at 10 µM [1, 3]: 68.4 ± 1.89%
- viability at 20 µM [1, 4]: 71.2 ± 3.75%
- Expression (p-α-s/GAPDH) (midbrain p-α-s): 0.61 ± 0.08

Compound: O=C(/C=C/c1ccc(O)c(O)c1)OCCc1ccccc1 [Positive control group, caffeic acid phenethyl ester, reference compound]
- Expression (TH/GAPDH) (midbrain TH): 0.85 ± 0.04
- Positive cell number (microglial cells with CD11b positive expression) (substantia nigra CD11b): 49 ± 7
- Expression (Immunofluorescence intensity %) (substantia nigra p-α-s): 202.07 ± 8.34%
- viability at 5 µM [1, 2]: 55 ± 3.78%
- viability at 10 µM [1, 3]: 67.1 ± 2.98%
- viability at 20 µM [1, 4]: 82.6 ± 2.13%
- Expression (p-α-s/GAPDH) (midbrain p-α-s): 0.54 ± 0.12

Compound: CC(C)N(c1ccc(CCS(=O)(=O)/C=C/c2ccc(OC(=O)N(C)c3ccc(I)cc3)c(OCCOCc3ccccc3)c2)cc1)C(C)C [Compound A1-3, (E)-2-(2-benzyloxyethoxy)-4-{2-[4-(N,N-diisopropylamino)phenylethylsulfonyl]ethenyl}phenyl-N-(4-iodophenyl)-N-methylcarbamate]
- Expression (TH/GAPDH) (midbrain TH): 0.93 ± 0.07
- Positive cell number (microglial cells with CD11b positive expression) (substantia nigra CD11b): 38 ± 4
- Expression (Immunofluorescence intensity %) (substantia nigra p-α-s): 134.19 ± 11.28%
- viability at 5 µM ([1]; 48 h): 74.3 ± 3.75%
- viability at 10 µM ([1]; 48 h): 89.7 ± 1.95%
- viability at 20 µM ([1]; 48 h): 94.1 ± 1.87%
- Expression (p-α-s/GAPDH) (midbrain p-α-s): 0.56 ± 0.12

Compound: COc1ccc(CC(=O)Oc2ccc(/C(C)=C/S(=O)(=O)/C=C/c3ccc(OC(=O)N(C)C)c(O[Si](C)(C)CCl)c3)cc2)cc1 [Compound P1-7, 4-{(E)-1-[(E)-3-(chloromethyldimethylsiloxy)-4-(N,N-dimethylcarbamoyloxy)styrylsulfonyl]prop-1-en-2-yl}phenyl-2-(4-methoxyphenyl) acetate]
- Expression (TH/GAPDH) (midbrain TH): 0.88 ± 0.06
- Positive cell number (microglial cells with CD11b positive expression) (substantia nigra CD11b): 15 ± 2
- Expression (Immunofluorescence intensity %) (substantia nigra p-α-s): 61.28 ± 5.36%
- viability at 5 µM ([1]; 48 h): 79.2 ± 3.72%
- viability at 10 µM ([1]; 48 h): 86.6 ± 2.93%
- viability at 20 µM ([1]; 48 h): 91.2 ± 2.08%
- Expression (p-α-s/GAPDH) (midbrain p-α-s): 0.27 ± 0.08

Compound: COCCN(C)C(=O)Oc1cc(/C=C/S(=O)(=O)CCc2cccc(-c3ccc(C)o3)c2)ccc1OC(C)=O [Compound J1-4, (E)-2-[N-(2-methoxyethyl)-N-methylcarbamoyloxy]-4-{2-[3-(5-methylfur-2-yl)phenylethylsulfonyl]ethenyl}phenyl acetate]
- Expression (TH/GAPDH) (midbrain TH): 0.89 ± 0.04
- Positive cell number (microglial cells with CD11b positive expression) (substantia nigra CD11b): 24 ± 5
- Expression (Immunofluorescence intensity %) (substantia nigra p-α-s): 116.95 ± 8.06%
- viability at 5 µM ([1]; 48 h): 75.2 ± 3.29%
- viability at 10 µM ([1]; 48 h): 84.8 ± 2.27%
- viability at 20 µM ([1]; 48 h): 90.3 ± 2.6%
- Expression (p-α-s/GAPDH) (midbrain p-α-s): 0.47 ± 0.11

Compound: COc1cc(/C=C/S(=O)(=O)Cc2cc(OC)c(OC)c(OC)c2)ccc1OC(=O)N(c1ccccc1)c1ccccc1 [Compound K3-3, (E)-2-methoxy-4-{2-[(3,4,5-trimethoxyphenyl)mesyl]ethenyl}-phenyl-N,N-diphenylcarbamate]
- Expression (TH/GAPDH) (midbrain TH): 1.15 ± 0.05
- Positive cell number (microglial cells with CD11b positive expression) (substantia nigra CD11b): 39 ± 3
- Expression (Immunofluorescence intensity %) (substantia nigra p-α-s): 180.11 ± 13.51%
- viability at 5 µM [1, 2]: 62.5 ± 3.58%
- viability at 10 µM [1, 3]: 75.5 ± 2.37%
- viability at 20 µM [1, 4]: 88.5 ± 1.73%
- Expression (p-α-s/GAPDH) (midbrain p-α-s): 0.62 ± 0.11
